# Data from patent US10844077B2, “Thiazolyl-containing compounds for treating proliferative diseases” (Dana-Farber Cancer Institute, Inc., priority 2014, dated 2020).
# Several values for one entry are separate records, joined by “and”; a condition that tells them apart may be missing. Equal values may be shown once. Read-outs that look alike come from different tables or passages of the source.
# How the values were obtained:
# Type in all cases: cell-based
# kinases in BCWM.1 cells [1] = biological target: T1, kinases in BCWM.1 cells (Homo sapiens, UniProt Q9UBE8); settings: NLK; Lys2; 1 μM, 90 min; GF
# Description: (§1) The cells were harvested and lysed. […] Bound kinases were identified and quantitated by ACTIVX as described in Patricelli et al., Biochemistry, 2007, 46(2): 350-358. The compounds were tested in duplicates against duplicate or quadruplicate control samples.
# kinases in BCWM.1 cells [2] = biological target: kinases in BCWM.1 cells (Homo sapiens, UniProt Q9NRH2); settings: SNRK; Lys2; 1 μM, 90 min; GF
# Description: as §1
# kinases in BCWM.1 cells [3] = biological target: T2, kinases in BCWM.1 cells (Homo sapiens, UniProt Q15208); settings: NDR1; Lys2; 1 μM, 90 min; GF
# T2 sequence (Q15208 2-465 limits assumed): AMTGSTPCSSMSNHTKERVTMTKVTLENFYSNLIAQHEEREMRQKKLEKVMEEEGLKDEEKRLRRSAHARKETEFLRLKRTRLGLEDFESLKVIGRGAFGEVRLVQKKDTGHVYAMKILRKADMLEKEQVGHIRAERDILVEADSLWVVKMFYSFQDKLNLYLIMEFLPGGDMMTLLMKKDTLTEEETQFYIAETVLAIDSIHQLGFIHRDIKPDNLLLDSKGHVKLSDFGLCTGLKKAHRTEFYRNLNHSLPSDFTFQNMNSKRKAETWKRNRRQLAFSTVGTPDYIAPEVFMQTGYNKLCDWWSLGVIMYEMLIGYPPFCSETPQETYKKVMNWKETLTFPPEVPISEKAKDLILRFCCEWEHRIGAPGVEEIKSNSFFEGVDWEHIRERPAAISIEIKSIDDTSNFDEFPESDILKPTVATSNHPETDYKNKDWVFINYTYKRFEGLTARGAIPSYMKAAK
# Description: as §1
# kinases in BCWM.1 cells [4] = settings: 1 μM, GF
# Description: as §1
# kinases in BCWM.1 cells [5] = biological target: kinases in BCWM.1 cells (Homo sapiens, UniProt Q9Y2I7); settings: PIP5K3; ATP; 1 μM, 90 min; GF
# kinases in BCWM.1 cells (Homo sapiens, UniProt Q9Y2I7), sequence (Q9Y2I7 2-2098 limits assumed): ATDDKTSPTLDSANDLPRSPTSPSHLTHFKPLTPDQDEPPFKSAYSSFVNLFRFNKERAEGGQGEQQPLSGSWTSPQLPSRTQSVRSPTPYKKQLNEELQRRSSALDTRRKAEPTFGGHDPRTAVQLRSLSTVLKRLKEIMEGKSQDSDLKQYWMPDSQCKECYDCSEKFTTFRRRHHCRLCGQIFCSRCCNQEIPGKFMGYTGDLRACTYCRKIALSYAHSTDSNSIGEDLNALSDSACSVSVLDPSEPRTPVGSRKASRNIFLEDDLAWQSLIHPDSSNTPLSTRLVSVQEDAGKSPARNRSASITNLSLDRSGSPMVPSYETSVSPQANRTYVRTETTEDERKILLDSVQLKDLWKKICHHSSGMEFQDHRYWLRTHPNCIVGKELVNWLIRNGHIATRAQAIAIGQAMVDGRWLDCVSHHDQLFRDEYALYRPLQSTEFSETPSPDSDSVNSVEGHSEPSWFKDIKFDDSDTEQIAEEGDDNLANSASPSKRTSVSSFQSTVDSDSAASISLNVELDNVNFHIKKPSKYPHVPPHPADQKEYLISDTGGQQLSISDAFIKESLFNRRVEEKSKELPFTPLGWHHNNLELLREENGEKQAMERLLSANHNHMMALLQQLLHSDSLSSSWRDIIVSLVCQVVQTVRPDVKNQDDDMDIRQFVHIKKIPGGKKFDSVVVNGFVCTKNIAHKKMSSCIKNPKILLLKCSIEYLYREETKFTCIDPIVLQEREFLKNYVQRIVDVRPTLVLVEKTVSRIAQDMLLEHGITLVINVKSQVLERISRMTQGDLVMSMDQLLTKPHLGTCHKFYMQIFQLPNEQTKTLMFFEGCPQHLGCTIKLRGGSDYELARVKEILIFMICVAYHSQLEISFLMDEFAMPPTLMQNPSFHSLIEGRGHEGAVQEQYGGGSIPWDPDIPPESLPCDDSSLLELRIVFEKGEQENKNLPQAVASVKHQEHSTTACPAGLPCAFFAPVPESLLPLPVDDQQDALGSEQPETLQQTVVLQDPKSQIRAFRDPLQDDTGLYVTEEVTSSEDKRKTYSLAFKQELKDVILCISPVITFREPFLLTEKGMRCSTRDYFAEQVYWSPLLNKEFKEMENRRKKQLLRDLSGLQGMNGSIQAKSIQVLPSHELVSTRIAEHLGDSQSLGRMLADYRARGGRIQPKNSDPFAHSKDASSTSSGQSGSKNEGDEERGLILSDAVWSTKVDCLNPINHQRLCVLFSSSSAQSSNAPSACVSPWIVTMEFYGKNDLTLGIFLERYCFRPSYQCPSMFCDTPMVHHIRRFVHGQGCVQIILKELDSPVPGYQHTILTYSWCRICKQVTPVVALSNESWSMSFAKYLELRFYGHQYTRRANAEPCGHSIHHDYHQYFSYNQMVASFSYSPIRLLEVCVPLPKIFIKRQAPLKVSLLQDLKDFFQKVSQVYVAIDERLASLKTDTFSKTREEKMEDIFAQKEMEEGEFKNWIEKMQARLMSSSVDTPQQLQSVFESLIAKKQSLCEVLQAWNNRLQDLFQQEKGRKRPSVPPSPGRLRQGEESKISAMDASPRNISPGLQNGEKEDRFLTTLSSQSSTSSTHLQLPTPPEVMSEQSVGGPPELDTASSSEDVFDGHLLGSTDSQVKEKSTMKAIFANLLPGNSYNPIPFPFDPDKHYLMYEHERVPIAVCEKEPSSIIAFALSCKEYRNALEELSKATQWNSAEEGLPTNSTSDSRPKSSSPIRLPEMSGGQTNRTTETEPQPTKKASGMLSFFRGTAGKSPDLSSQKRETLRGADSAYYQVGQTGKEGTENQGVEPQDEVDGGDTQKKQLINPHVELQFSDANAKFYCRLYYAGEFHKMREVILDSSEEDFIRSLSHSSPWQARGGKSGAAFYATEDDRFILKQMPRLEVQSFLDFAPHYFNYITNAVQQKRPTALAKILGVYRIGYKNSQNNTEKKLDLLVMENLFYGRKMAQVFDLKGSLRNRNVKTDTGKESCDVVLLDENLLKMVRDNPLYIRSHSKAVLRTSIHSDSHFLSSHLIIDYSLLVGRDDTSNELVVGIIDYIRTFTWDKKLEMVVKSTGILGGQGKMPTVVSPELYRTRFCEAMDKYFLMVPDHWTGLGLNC
# Description: as §1
# kinases in BCWM.1 cells [6] = biological target: T3, kinases in BCWM.1 cells (Homo sapiens, UniProt Q9NYL2); settings: ZAK; Lys1; 1 μM, 90 min; GF
# T3 sequence (Q9NYL2 2-800 limits assumed): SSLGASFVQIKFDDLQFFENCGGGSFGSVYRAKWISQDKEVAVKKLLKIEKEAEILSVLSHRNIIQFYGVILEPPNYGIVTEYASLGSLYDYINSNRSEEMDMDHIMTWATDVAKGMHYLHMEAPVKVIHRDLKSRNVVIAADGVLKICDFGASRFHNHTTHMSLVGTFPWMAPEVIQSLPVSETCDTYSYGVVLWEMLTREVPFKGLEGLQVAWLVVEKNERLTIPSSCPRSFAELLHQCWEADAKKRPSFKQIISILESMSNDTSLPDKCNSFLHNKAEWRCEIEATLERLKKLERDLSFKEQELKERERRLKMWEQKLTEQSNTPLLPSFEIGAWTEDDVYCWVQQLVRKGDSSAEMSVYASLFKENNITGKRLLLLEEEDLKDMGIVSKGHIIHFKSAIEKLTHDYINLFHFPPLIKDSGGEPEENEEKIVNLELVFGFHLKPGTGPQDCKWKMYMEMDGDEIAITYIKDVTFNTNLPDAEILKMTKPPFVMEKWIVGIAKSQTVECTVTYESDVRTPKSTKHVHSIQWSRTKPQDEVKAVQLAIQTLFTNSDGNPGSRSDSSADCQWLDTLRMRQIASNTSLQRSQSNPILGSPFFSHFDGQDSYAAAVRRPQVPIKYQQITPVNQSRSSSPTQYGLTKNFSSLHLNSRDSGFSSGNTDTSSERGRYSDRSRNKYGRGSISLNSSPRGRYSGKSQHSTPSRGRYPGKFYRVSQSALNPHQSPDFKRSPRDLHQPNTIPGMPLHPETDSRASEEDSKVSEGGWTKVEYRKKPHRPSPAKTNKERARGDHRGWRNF
# Description: as §1
# kinases in BCWM.1 cells [7] = biological target: kinases in BCWM.1 cells (Homo sapiens, UniProt Q9BYT3); settings: STK33; Lys2; 1 μM, 90 min; GF
# Description: as §1
# kinases in BCWM.1 cells [8] = biological target: T1, kinases in BCWM.1 cells; experiment: KINATIV assay of compounds I-3 and I-9, lysate directly labeled with ATP-biotin probe (no GF); settings: NLK; Lys2; 1 μM, 90 min; no GF
# Description: as §1
# kinases in BCWM.1 cells [9] = biological target: kinases in BCWM.1 cells (Homo sapiens, UniProt Q8TBX8); experiment: as above; settings: PIP4K2C; ATP; 1 μM, 90 min; no GF
# kinases in BCWM.1 cells (Homo sapiens, UniProt Q8TBX8), sequence (Q8TBX8 2-421 limits assumed): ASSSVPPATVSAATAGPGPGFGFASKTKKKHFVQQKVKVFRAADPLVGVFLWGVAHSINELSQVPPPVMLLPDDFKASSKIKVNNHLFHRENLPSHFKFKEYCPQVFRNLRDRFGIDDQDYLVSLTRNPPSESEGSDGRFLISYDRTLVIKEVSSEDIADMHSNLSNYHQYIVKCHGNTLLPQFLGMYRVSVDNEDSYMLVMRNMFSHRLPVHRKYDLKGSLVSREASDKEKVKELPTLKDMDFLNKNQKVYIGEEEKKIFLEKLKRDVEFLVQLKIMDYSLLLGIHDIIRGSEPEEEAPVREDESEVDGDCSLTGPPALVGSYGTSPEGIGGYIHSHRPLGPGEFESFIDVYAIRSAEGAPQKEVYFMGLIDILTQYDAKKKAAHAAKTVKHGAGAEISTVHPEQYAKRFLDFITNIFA
# Description: as §1
# kinases in BCWM.1 cells [10] = biological target: kinases in BCWM.1 cells (Homo sapiens, UniProt O00329); experiment: as above; settings: PIK3CD; ATP; 1 μM, 90 min; no GF
# Description: as §1
# kinases in BCWM.1 cells [11] = biological target: kinases in BCWM.1 cells (Homo sapiens, UniProt P29597); experiment: as above; settings: TYK2 domain2; Activation Loop; 1 μM, 90 min; no GF
# Description: as §1
# kinases in BCWM.1 cells [12] = biological target: kinases in BCWM.1 cells (Homo sapiens, UniProt P30291); experiment: as above; settings: Wee1; Lys2; 1 μM, 90 min; no GF
# Description: as §1
# kinases in BCWM.1 cells [13] = biological target: T2, kinases in BCWM.1 cells; experiment: as above; settings: NDR1; Lys2; 1 μM, 90 min; no GF
# Description: as §1
# kinases in BCWM.1 cells [14] = biological target: kinases in BCWM.1 cells (Homo sapiens, UniProt Q15349); experiment: as above; settings: RSK3 domain1; Lys2; 1 μM, 90 min; no GF
# Description: as §1
# kinases in BCWM.1 cells [15] = biological target: kinases in BCWM.1 cells (Homo sapiens, UniProt Q96BR1); experiment: as above; settings: SGK3; Lys1; 1 μM, 90 min; no GF
# Description: as §1
# kinases in BCWM.1 cells [16] = biological target: kinases in BCWM.1 cells (Homo sapiens, UniProt Q13523); experiment: as above; settings: PRP4; Lys2; 1 μM, 90 min; no GF
# Description: as §1
# kinases in BCWM.1 cells [17] = biological target: kinases in BCWM.1 cells (Homo sapiens, UniProt Q14289); experiment: as above; settings: PYK2; Activation Loop; 1 μM, 90 min; no GF
# Description: as §1
# kinases in BCWM.1 cells [18] = biological target: kinases in BCWM.1 cells (Homo sapiens, UniProt P04049); experiment: as above; settings: RAF1; Lys2; 1 μM, 90 min; no GF
# Description: as §1
# kinases in BCWM.1 cells [19] = biological target: T3, kinases in BCWM.1 cells; experiment: as above; settings: ZAK; Lys1; 1 μM, 90 min; no GF
# Description: as §1
# kinases in BCWM.1 cells [20] = biological target: kinases in BCWM.1 cells (Homo sapiens, UniProt Q9UKI8); experiment: as above; settings: TLK1; Lys2; 1 μM, 90 min; no GF
# Description: as §1
# kinases in BCWM.1 cells [21] = biological target: kinases in BCWM.1 cells (Homo sapiens, UniProt Q9BZL6); experiment: as above; settings: PKD2; Lys1; 1 μM, 90 min; no GF
# Description: as §1
# kinases in BCWM.1 cells [22] = biological target: kinases in BCWM.1 cells (Homo sapiens, UniProt P51957); experiment: as above; settings: NEK4; Lys2; 1 μM, 90 min; no GF
# Description: as §1
# kinases in BCWM.1 cells [23] = biological target: kinases in BCWM.1 cells (Homo sapiens, UniProt P43405); experiment: as above; settings: SYK; Activation Loop; 1 μM, 90 min; no GF
# Description: as §1
# kinases in BCWM.1 cells [24] = biological target: kinases in BCWM.1 cells (Homo sapiens, UniProt O95819); experiment: as above; settings: ZC1/HGK; Lys1; 1 μM, 90 min; no GF
# Description: as §1
# kinases in BCWM.1 cells [25] = biological target: kinases in BCWM.1 cells (Homo sapiens, UniProt P53350); experiment: as above; settings: PLK1; Lys1; 1 μM, 90 min; no GF
# kinases in BCWM.1 cells (Homo sapiens, UniProt P53350), sequence (P53350 2-603 limits assumed): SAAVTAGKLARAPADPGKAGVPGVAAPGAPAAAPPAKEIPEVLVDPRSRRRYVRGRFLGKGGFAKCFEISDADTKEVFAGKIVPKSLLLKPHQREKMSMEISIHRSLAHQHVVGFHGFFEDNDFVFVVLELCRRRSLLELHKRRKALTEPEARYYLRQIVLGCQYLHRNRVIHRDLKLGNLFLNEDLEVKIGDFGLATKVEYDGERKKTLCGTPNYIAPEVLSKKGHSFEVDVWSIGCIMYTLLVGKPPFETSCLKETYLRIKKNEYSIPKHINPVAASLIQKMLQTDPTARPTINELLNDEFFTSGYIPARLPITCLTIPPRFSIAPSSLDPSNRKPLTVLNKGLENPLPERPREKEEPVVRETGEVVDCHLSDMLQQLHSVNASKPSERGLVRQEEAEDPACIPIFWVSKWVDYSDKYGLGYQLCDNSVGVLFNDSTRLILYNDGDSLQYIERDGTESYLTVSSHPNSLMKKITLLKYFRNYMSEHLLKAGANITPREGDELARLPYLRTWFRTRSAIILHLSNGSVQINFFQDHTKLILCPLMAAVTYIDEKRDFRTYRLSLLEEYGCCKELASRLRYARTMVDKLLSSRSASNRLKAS
# Description: as §1
# kinases in BCWM.1 cells [26] = biological target: kinases in BCWM.1 cells (Homo sapiens, UniProt Q86UE8); experiment: as above; settings: TLK2; Lys2; 1 μM, 90 min; no GF
# Description: as §1
smiles,measurement,setting,value
CCC(=O)N1CC[C@H](Nc2nccc(Nc3ncc(C(=O)Nc4c(C)cccc4C)s3)n2)C1 [Example I-9],% change of MS signal compared to control sample,kinases in BCWM.1 cells [1],51.8%
same,% change of MS signal compared to control sample,kinases in BCWM.1 cells [2],30.1%
same,% change of MS signal compared to control sample,kinases in BCWM.1 cells [3],2.8%
same,% change of MS signal compared to control sample,"kinases in BCWM.1 cells [4]; ABL, ARG, Activation Loop",46.1% and 75.4%
same,% change of MS signal compared to control sample,"kinases in BCWM.1 cells [4]; ABL, ARG, Lys1",40.6% and 71.8%
same,% change of MS signal compared to control sample,"kinases in BCWM.1 cells [4]; AurA, AurB, AurC, ATP Loop",5.5% and 2.8%
same,% change of MS signal compared to control sample,"kinases in BCWM.1 cells [4]; CK1g1, CK1g2, CK1g3, ATP Loop",−8.2% and −4.7%
same,% change of MS signal compared to control sample,"kinases in BCWM.1 cells [4]; FYN, SRC, YES, Activation Loop",72.5% and 80.4%
same,% change of MS signal compared to control sample,"kinases in BCWM.1 cells [4]; JNK1, JNK2, JNK3, Lys2",−7% and 0.5%
same,% change of MS signal compared to control sample,"kinases in BCWM.1 cells [4]; KSR1, KSR2, Activation Loop",−14.6% and −16.2%
same,% change of MS signal compared to control sample,"kinases in BCWM.1 cells [4]; MAP2K1, MAP2K2, Lys1",−9.2% and −1.1%
same,% change of MS signal compared to control sample,"kinases in BCWM.1 cells [4]; MAP2K1, MAP2K2, Lys2",−6.4% and −4.5%
same,% change of MS signal compared to control sample,"kinases in BCWM.1 cells [4]; MAP3K2, MAP3K3, Lys2",0.7% and 6.8%
same,% change of MS signal compared to control sample,"kinases in BCWM.1 cells [4]; MARK3, MARK4, Lys1",−10.4% and −7.1%
same,% change of MS signal compared to control sample,"kinases in BCWM.1 cells [4]; MER, TYRO3, Activation Loop",−14.7%
same,% change of MS signal compared to control sample,"kinases in BCWM.1 cells [4]; MST4, YSK1, Lys2, 90 min",15.2%
same,% change of MS signal compared to control sample,"kinases in BCWM.1 cells [4]; NEK6, NEK7, Lys2, 90 min",−0.8%
same,% change of MS signal compared to control sample,"kinases in BCWM.1 cells [4]; PCTAIRE2, PCTAIRE3, Lys1, 90 min",−0.8%
same,% change of MS signal compared to control sample,"kinases in BCWM.1 cells [4]; PI4KA, PI4KAP2, ATP, 90 min",3.6%
same,% change of MS signal compared to control sample,"kinases in BCWM.1 cells [4]; PKACa, PKCb, Lys2, 90 min",25.3%
same,% change of MS signal compared to control sample,"kinases in BCWM.1 cells [4]; ROCK1, ROCK2, Lys2, 90 min",1.7%
same,% change of MS signal compared to control sample,"kinases in BCWM.1 cells [4]; RSK1 domain1, RSK2 domain1, RSK3 domain1, Lys2, 90 min",−6.1%
same,% change of MS signal compared to control sample,"kinases in BCWM.1 cells [4]; SRPK1, SRPK2, Lys1, 90 min",2.5%
same,% change of MS signal compared to control sample,"kinases in BCWM.1 cells [4]; TAO1, TAO3, Lys2, 90 min",9.3%
same,% change of MS signal compared to control sample,"kinases in BCWM.1 cells [4]; Wnk1, Wnk2, Wnk3, Lys2, 90 min",4.4%
same,% change of MS signal compared to control sample,"kinases in BCWM.1 cells [4]; Wnk1, Wnk2, ATP Loop, 90 min",7.6%
same,% change of MS signal compared to control sample,"kinases in BCWM.1 cells [4]; ZC1/HGK, ZC2/TNIK, ZC3/MINK, Lys2, 90 min",1.8%
same,% change of MS signal compared to control sample,"kinases in BCWM.1 cells [4]; p38d, p38g, Lys2, 90 min",−27.1%
same,% change of MS signal compared to control sample,kinases in BCWM.1 cells [5],−4.6%
same,% change of MS signal compared to control sample,kinases in BCWM.1 cells [6],12.1%
same,% change of MS signal compared to control sample,kinases in BCWM.1 cells [7],16.1%
same,% change of MS signal compared to control sample,kinases in BCWM.1 cells [8],−1.2%
same,% change of MS signal compared to control sample,kinases in BCWM.1 cells [9],10%
same,% change of MS signal compared to control sample,kinases in BCWM.1 cells [10],−19.7%
same,% change of MS signal compared to control sample,kinases in BCWM.1 cells [11],−17.7%
same,% change of MS signal compared to control sample,kinases in BCWM.1 cells [12],14.3%
same,% change of MS signal compared to control sample,kinases in BCWM.1 cells [13],−4.2%
same,% change of MS signal compared to control sample,kinases in BCWM.1 cells [14],−1.4%
same,% change of MS signal compared to control sample,kinases in BCWM.1 cells [15],1.1%
same,% change of MS signal compared to control sample,kinases in BCWM.1 cells [16],−24.8%
same,% change of MS signal compared to control sample,kinases in BCWM.1 cells [17],5.1%
same,% change of MS signal compared to control sample,kinases in BCWM.1 cells [18],9.9%
same,% change of MS signal compared to control sample,kinases in BCWM.1 cells [19],−9.3%
same,% change of MS signal compared to control sample,kinases in BCWM.1 cells [20],−7.9%
same,% change of MS signal compared to control sample,kinases in BCWM.1 cells [21],−11%
same,% change of MS signal compared to control sample,kinases in BCWM.1 cells [22],−13.1%
same,% change of MS signal compared to control sample,kinases in BCWM.1 cells [23],−6.5%
same,% change of MS signal compared to control sample,kinases in BCWM.1 cells [24],20.9%
same,% change of MS signal compared to control sample,kinases in BCWM.1 cells [25],2.1%
same,% change of MS signal compared to control sample,kinases in BCWM.1 cells [26],−13.3%
